Reference: patent publication US9865819B2, “Nitrogen annulated perylene diimides for use as electron transport materials in organic electronic devices” (UTI Limited Partnership, priority 2016, dated 2018)
Converted amounts (≈) assume the structure as drawn.

Experiments:
[1] = Solubility in CHCl3 by UV-vis absorbance calibration curve; format: physicochemical; settings: room temperature, 50 mg/mL samples stirred overnight, 0.45 μm filtered, diluted 2000x, Beer-Lambert; for solubility: CHCl3, organic solvent or mixture, thermodynamic from solid
Description: FIG. 2 is a concentration vs absorption plot for determining the solubility of compounds (5) and (7) in CHCl3. A calibration curve was made for each compound by plotting absorbance values of known concentrations. (Dotted lines). In order to determine solubility, compounds (5) and (7) were made into solutions having 50 mg/mL concentration, allowed to stir overnight and then passed through a 0.45 μm syringe filter to remove any undissolved solids. The obtained solutions were then diluted by a factor of 2000 so that their absorbance was in the range of values used for the calibration curves. By using the Beer-Lambert law and the slope of the respective curves, it was determined that the solubility of both (5) and (7) was ˜50 mg/mL. This observation is confirmed by the apparent complete dissolution of 50 mg/mL samples of either (5) or (7) in CHCl3.
With the N annulated PDI derivatives (4), (5) and (7) in hand we set out to study their optical electronic and solubility characteristics. The N-annulated PDI materials bear an extra site for alkyl chain functionalization which was envisioned to modify the solubility and self-assembly characteristics of the materials with respect to the parent PDI compound (2). […] This assertion is supported by ^1H NMR evidence showing that the N—H proton becomes more deshielded upon increasing the solution concentration, typically observed for hydrogen bonding interactions (not shown). […] [54] Importantly, such high organic solvent solubility is achieved without the need for long branched alkyl chains attached to the imide N atoms, chains that are used for almost all reported multi-PDI based materials. Thus, one can envision a wide array of alkyl chains being installed to fine-tune molecular assembly in the solid state, following the so-called “side chain engineering” methodology.

[2] = Thermal stability by TGA analysis; format: physicochemical
Description: The melting points of compounds (4), (5), and (7) were also determined and provide support for the assertion that compound (4) experiences intermolecular hydrogen bonding interactions. […] Dimerization improves thermal stability.

| SMILES | melting point [°C] | solubility [1] [mg/mL] | solubility in CHCl3 [1] [mg/mL] | thermally stable up to / decomposition temperature (TGA) [2] [°C] |
| --- | --- | --- | --- | --- |
| CCC(CC)n1c(=O)c2ccc3c4ccc5c(=O)n(C(CC)CC)c(=O)c6cc7[nH]c8cc(c1=O)c2c3c8c7c4c56 [Compound 4, EP-NH-CAG-PDI] | 235 | < 1 | – | – |
| CCCCCCn1c2cc3c(=O)n(C(CC)CC)c(=O)c4ccc5c6ccc7c(=O)n(C(CC)CC)c(=O)c8cc1c(c6c78)c2c5c43 [Compound 5, EP-N-Hex-CAG-PDI] | – | > 50 | ~50 (≈ 79.6 mM) | – |
| CCCCCCn1c2cc3c(=O)n(C(CC)CC)c(=O)c4ccc5c6c(-c7cc8c(=O)n(C(CC)CC)c(=O)c9cc%10c%11c(c7c7ccc%12c(=O)n(C(CC)CC)c(=O)c%13cc(c%11c7c%12%13)n%10CCCCCC)c89)cc7c(=O)n(C(CC)CC)c(=O)c8cc1c(c6c78)c2c5c43 [Compound 7, BAY-EP-N-Hex-CAG-PDI] | – | > 50 | ~50 (≈ 39.9 mM) | ~425 |
